Measured values taken from paper PMC6625891 (ACS infectious diseases, 2019).
Converted amounts (≈) assume the structure as drawn. “And” between values parts separate entries of the source, which are not always exact repeats. Equal values may be shown once. Read-outs that look alike come from different tables or passages of the source.

Experiments:
Escherichia coli LeuRS = settings: read-out: IC50 (E. coli LeuRS); binds to the editing site; cited from earlier work
Gram-negative pathogens = settings: cited from earlier work
[1] = test system: Mycobacterium tuberculosis; settings: M. tuberculosis; cited from earlier work
M. tuberculosis LeuRS = settings: read-out: M. tuberculosis LeuRS IC50; cited from earlier work
[2] = target: T1, S. aureus LeuRS (saLeuRS) (Staphylococcus aureus, UniProt Q2FXH2); test: radiolabeled LeuRS aminoacylation assay; type: biochemical
T1 sequence (Q2FXH2 1-805): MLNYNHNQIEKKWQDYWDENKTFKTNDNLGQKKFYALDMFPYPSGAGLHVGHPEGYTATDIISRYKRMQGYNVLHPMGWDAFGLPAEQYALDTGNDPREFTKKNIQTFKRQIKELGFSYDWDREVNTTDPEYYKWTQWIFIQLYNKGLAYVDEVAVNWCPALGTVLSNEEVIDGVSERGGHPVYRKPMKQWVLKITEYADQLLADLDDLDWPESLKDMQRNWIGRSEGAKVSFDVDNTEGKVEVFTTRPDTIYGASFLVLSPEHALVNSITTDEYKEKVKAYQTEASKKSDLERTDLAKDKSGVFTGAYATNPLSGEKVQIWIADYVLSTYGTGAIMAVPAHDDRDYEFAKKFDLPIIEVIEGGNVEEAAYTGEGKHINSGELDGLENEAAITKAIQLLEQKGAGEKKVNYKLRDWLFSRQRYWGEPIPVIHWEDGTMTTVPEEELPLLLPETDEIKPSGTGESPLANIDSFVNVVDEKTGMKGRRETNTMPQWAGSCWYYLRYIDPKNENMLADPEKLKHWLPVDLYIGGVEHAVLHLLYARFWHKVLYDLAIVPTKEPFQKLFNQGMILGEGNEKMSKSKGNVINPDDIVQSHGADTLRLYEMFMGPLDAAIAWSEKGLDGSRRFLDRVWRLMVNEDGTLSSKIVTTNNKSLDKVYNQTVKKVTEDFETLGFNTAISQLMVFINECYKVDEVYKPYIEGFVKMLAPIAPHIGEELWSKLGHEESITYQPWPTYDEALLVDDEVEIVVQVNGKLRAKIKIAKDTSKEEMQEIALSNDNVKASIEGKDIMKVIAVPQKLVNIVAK

[3] = Cytotoxicity, MTT cell viability assay; type: cell-based; settings: monkey, vero cells
[4] = test system: MRSA (ATCC BAA-1762) resistant mutants; settings: for MIC shift: vs wild-type MRSA
S. aureus = settings: previously reported; cited from earlier work
saLeuRS = settings: read-out: IC50 (LeuRS); previously reported; ref 25 (Xia et al.); cited from earlier work
MRSA (ATCC BAA-1762) [5] = test: Time-kill experiments
MRSA (ATCC BAA-1762) [6] = test: Post-antibiotic effect; settings: 1 h exposure
[7] = test system: MRSA (ATCC BAA-1762) resistant mutants; test: microbe, parasite or virus in culture; settings: Staphylococcus aureus, ATCCBAA1762|MRSA, read-out: MIC of resistant colonies
MRSA ATCC BAA-1762 = test: MIC by broth microdilution; type: cell-based, Staphylococcus aureus
Vero cells = test: Cytotoxicity, MTT cell viability assay; type: cell-based; settings: Vero cells, 24 h, MTT

## NC[C@H]1OB(O)c2c(OCCCO)cccc21 [AN3365]
Escherichia coli LeuRS
  IC50: 310 nM
Gram-negative pathogens
  MIC: 0.5 to 4 µg/mL

## CCOc1ccc(Cl)c2c1B(O)OC2CN (centres unmarked) [AN6426]
[1]
  MIC: 0.13 µM (≈ 0.0314 µg/mL)
M. tuberculosis LeuRS
  IC50: 90 nM

## O=[N+]([O-])c1ccc(S(=O)(=O)Nc2ccc3c(c2)B(O)OC3)cc1 [PT638]
[2]
  IC50: > 100000 nM
[2]; 7 nM saLeuRS, 20 min pre-incubation, triplicate
  IC50 (saLeuRS aminoacylation): did not inhibit saLeuRS
[3]
  CC50 at 24 h: ≥ 100 µg/mL
[4]; mutant strain 1, D343Y saLeuRS
  MIC shift: 16-fold
[4]; mutant strain 2, G303S saLeuRS
  MIC shift: 8-fold
[4]; mutant strain 3, F233I saLeuRS
  MIC shift: 8-fold
[4]; three colonies picked
  MIC of resistant colonies relative to parent strain: at least 8 times
S. aureus
  MIC against S. aureus: < 0.2 µg/mL
saLeuRS
  IC50: > 200000 nM
MRSA (ATCC BAA-1762) [5]; 1 times the MIC
  reduction in cell numbers over 8 h: 1.8 log10 cfu/mL
MRSA (ATCC BAA-1762) [5]; 4 times the MIC
  reduction in cell numbers over 8 h: 2.2 log10 cfu/mL
MRSA (ATCC BAA-1762) [5]; 16 times the MIC
  reduction in cell numbers over 8 h: 2.7 log10 cfu/mL
MRSA (ATCC BAA-1762) [5]; over the course of 8 h
  type of antibacterial activity in time-kill: bacteriostatic
MRSA (ATCC BAA-1762) [6]; 0.25 × MIC
  duration of the post-antibiotic effect: 0.2 h
MRSA (ATCC BAA-1762) [6]; 4 × MIC
  duration of the post-antibiotic effect: 1.5 h
[7]
  MIC: ≥ 3.12 µg/mL

## Nc1ccc(S(=O)(=O)Nc2ccc3c(c2)B(O)OC3)cc1 [PT662]
MRSA ATCC BAA-1762; MRSA ATCC BAA-1762
  fold increase in MIC relative to PT638: 8 fold
MRSA ATCC BAA-1762; MRSA ATCC BAA-1762, broth microdilution
  MIC MRSA: 3.1 µg/mL and 3.125 µg/mL
Vero cells
  Cytotoxicity Vero cells (IC50): ≥100 µg/mL
